In patent US20230357261A1, “ARYL HYDROCARBON RECEPTOR LIGANDS AND THEIR ANALOGUES FOR THE PREVENTION AND TREATMENT OF INFLAMMATORY DISORDERS” (The Johns Hopkins University, priority 2020, published 2023):
“Also recorded” adds a separate entry of the source.

How the values were obtained:
TLR4 = TLR4 signaling in mouse ileal enteroids (LPS-induced Tnf-a qRT-PCR); type: cell-based; settings: wildtype mouse enteroids; tested compound 40 uM overnight, then LPS 50 μg/mL 6 hours
Procedure: (§1) Primary intestinal crypt cultures (enteroids) were generated from the ileum of neonatal (p7-p11) wild type and Ahr′ mice at as described, Neal et al., 2012, and maintained in Matrigel (Corning). The enteroids were digested and passed using TrypLE Express (Gibco) weekly, and used between passage 3 and 10 for all experiments. The enteroids were pre-treated with I3C ([…], 12 h), A18 (20 μM, 12 h) or human breast milk (100 μL/mL, Innovative Research, prepared by 5-minute-cenrifugation at 12,000 g and then filtration of supernatant through a 0.22-μm filter) and then treated with LPS (50 μg/mL) for 4 hours for further analysis.
(§2) Primary intestinal crypt cultures (enteroids) were generated from the ileum of neonatal (p7-p11) mice at as described, Neal et al., 2012, and maintained in Matrigel (Corning). The enteroids were digested and passed using TrypLE Express (Gibco) weekly, and used between passage 3 and 10 for all experiments. The enteroids were pre-treated with tested compound (40 uM, overnight) and then treated with LPS (50 μg/mL) for 6 hours for further analysis.
(§3) Total RNA was isolated using the RNeasy mini kit (Qiagen) and complementary DNA was synthesized from 0.5 μg RNA using QuantiTect Reverse Transcription kit (Qiagen) following the manufacturer's protocols. The mRNA quantification was performed on the Bio-Rad CFX96 Real-Time System (Bio-Rad) using iTaq™ universal SYBR® Green supermix (Bio-Rad) and the primers listed in Table 2. The relative mRNA expression levels were normalized against the expression of the housekeeping gene ribosomal protein lateral stalk subunit P0 (Rplp0).

AHR [1] = experiment: AHR activation (Cyp1a1) in ileum of mice in the NEC model (Example 3); type: in vivo; settings: mouse NEC model; 20 mg/kg/day by oral gavage for 4 days
Text: (§4) Experimental NEC was induced in 7-day old mice as we have previously described, Good et al., 2015; Sodhi et al., 2018; Egan et al., 2016, by gavage feeding newborn mice with formula containing Similac Advance infant formula (Abbott Nutrition): Esbilac (PetAg) canine milk replacer, 2:1 ratio, which was supplemented with enteric bacteria made from a stock created from a specimen obtained from an infant with surgical NEC five times per day.
(§5) Additionally, the mice were subjected to hypoxia (5% 02-95% N2) for 10 min in a hypoxia chamber (Billups-Rothenberg) twice daily for 4 days. The compound #169, compound #243, compound #247 or compound #263 administered by oral gavage during the induction of NEC at the dose of 20 mg/kg body weight/day.
(§6) Age-matched breast milk-fed mouse pups were used as healthy controls. Evaluation of ileal histology by H&E staining and expression of pro-inflammatory cytokines by qRT-PCR at a fixed point in the terminal ileum 2-cm proximal to the cecum, were used to determine the disease severity.
as §3

mouse NEC model = experiment: Experimental NEC in newborn mice (Example 3); type: in vivo; settings: 20 mg/kg body weight/day for 4 days; for severity of NEC: 20 mg/kg/day
Text: as §4, §5, §6, §3

AHR [2] = experiment: AHR activation in mouse ileal enteroids (Cyp1a1 qRT-PCR); type: cell-based; settings: wildtype mouse enteroids, tested compound 40 uM, overnight
Procedure: as §1, §2, §3

Cc1c(OCc2ccccc2)ccnc1CSc1nc2ccc(F)cc2[nH]1 [compound 23, 5-fluoro-2-(((3-methyl-4-benzyloxypyridin-2-yl)methyl)thio)-1H-benzo[d]-imidazole]
melting point: 175 to 177 °C

COc1ccnc(CS(=O)(=O)c2nc3cc(F)ccc3[nH]2)c1C [compound 26, 5-fluoro-2-(((3-methyl-4-methoxypyridin-2-yl)methyl)sulfonyl)-1H-benzo[d]-imidazole]
melting point: 192 to 193 °C

Cc1c(OCC(F)(F)F)ccnc1CSc1nc2ccc(C#N)cc2[nH]1 [compound 19, 5-cyano-2-(((3-methyl-4-(2,2,2-trifluoroethoxy)pyridin-2-yl)methyl)thio)-1H-benzo[d]-imidazole]
melting point: 204 to 205 °C

N#C/C(=C(/N)c1ncnc2ccccc12)c1nc2ccccc2[nH]1 [compound #263]
inhibition of TLR4 signaling in mouse enteroids (Tnf-a induction by LPS, FIG. 15b, FIG. 19) (TLR4): significantly inhibited the TLR4 signaling | expression of Cyp1a1 in vivo (ileum) (AHR [1]): significantly induced the expression of Cyp1a1 | expression of IL-1b, IL-6, Tnf-a and Lcn2 in the intestinal epithelium (mouse NEC model): reduced expression | histological injury (H&E, ileum) (mouse NEC model): reduced histological injury | severity of NEC (mouse NEC model): significantly reduced the severity of experimental NEC; also recorded: protects against experimental NEC

Cc1c(Oc2ccccc2)ccnc1CSc1nc2ccc(F)cc2[nH]1 [compound 22, 5-fluoro-2-(((3-methyl-4-phenoxypyridin-2-yl)methyl)thio)-1H-benzo[d]imidazole]
melting point: 134 to 136 °C

COc1ccnc(CSc2nc3ccc(F)cc3[nH]2)c1C [compound 20, 5-fluoro-2-(((3-methyl-4-methoxypyridin-2-yl)methyl)thio)-1H-benzo[d]imidazole]
melting point: 153 to 155 °C

Cc1cc2c(=O)n(Cc3ccco3)c(SCc3nc4ccccc4[nH]3)nc2s1 [compound #169]
activation of AHR signaling in mouse enteroids (Cyp1a1, FIG. 15a) (AHR [2]): activated AHR | activation of AHR signaling in mouse enteroids (Cyp1a1, FIG. 15a) (AHR [2]; listed as #169): activated AHR signaling | inhibition of TLR4 signaling in mouse enteroids (Tnf-a induction by LPS, FIG. 15b, FIG. 19) (TLR4): significantly inhibited TLR4 signaling | expression of Cyp1a1 in vivo (ileum) (AHR [1]): did not induce the expression of Cyp1a1 | histological injury (H&E, ileum) (mouse NEC model): reduced histological injury | severity of NEC (mouse NEC model): did not reduce the severity of NEC; also recorded: didn't not reduce the severity of NEC

CCOc1ccnc(CSc2nc3ccc(F)cc3[nH]2)c1C [compound 21, 5-fluoro-2-(((3-methyl-4-ethoxypyridin-2-yl)methyl)thio)-1H-benzo[d]imidazole]
melting point: 102 to 104 °C

c1ccc2[nH]c(CSc3ncnc4ccccc34)nc2c1 [compound #243]
activation of AHR signaling in mouse enteroids (Cyp1a1, FIG. 15a) (AHR [2]): activated AHR signaling | inhibition of TLR4 signaling in mouse enteroids (Tnf-a induction by LPS, FIG. 15b, FIG. 19) (TLR4): significantly inhibited TLR4 signaling | expression of Cyp1a1 in vivo (ileum) (AHR [1]): did not induce the expression of Cyp1a1 | histological injury (H&E, ileum) (mouse NEC model): reduced histological injury | severity of NEC (mouse NEC model): did not reduce the severity of NEC; also recorded: didn't not reduce the severity of NEC

Cc1c(OCc2ccccc2)ccnc1CS(=O)(=O)c1nc2ccc(F)cc2[nH]1 [compound 29, 5-fluoro-2-(((3-methyl-4-benzyloxypyridin-2-yl)methyl)sulfonyl)-1H-benzo[d]-imidazole]
melting point: 185 to 188 °C

Cc1ccc2nc(S(=O)(=O)Cc3nccc(OCC(F)(F)F)c3C)[nH]c2c1 [compound 25, 5-methyl-2-(((3-methyl-4-(2,2,2-trifluoroethoxy)pyridin-2-yl)methyl)sulfonyl)-1H-benzo[d]-imidazole]
melting point: 193 to 194 °C

c1ccc2[nH]c(COc3ncnc4ccccc34)nc2c1 [compound #247]
activation of AHR signaling in mouse enteroids (Cyp1a1, FIG. 15a) (AHR [2]): activated AHR signaling | inhibition of TLR4 signaling in mouse enteroids (Tnf-a induction by LPS, FIG. 15b, FIG. 19) (TLR4): significantly inhibited TLR4 signaling | expression of Cyp1a1 in vivo (ileum) (AHR [1]): significantly induced the expression of Cyp1a1 | histological injury (H&E, ileum) (mouse NEC model): reduced histological injury | severity of NEC (mouse NEC model): did not reduce the severity of NEC; also recorded: didn't not reduce the severity of NEC

Cc1ccc2nc(SCc3nccc(OCC(F)(F)F)c3C)[nH]c2c1 [compound 18, 5-methyl-2-(((3-methyl-4-(2,2,2-trifluoroethoxy)pyridin-2-yl)methyl)thio)-1H-benzo[d]imidazole]
melting point: 153 to 155 °C

Cc1c(Oc2ccccc2)ccnc1CS(=O)(=O)c1nc2ccc(F)cc2[nH]1 [compound 28, 5-fluoro-2-(((3-methyl-4-phenoxypyridin-2-yl)methyl)sulfonyl)-1H-benzo[d]-imidazole]
melting point: 155 to 157 °C

CCOc1ccnc(CS(=O)(=O)c2nc3ccc(F)cc3[nH]2)c1C [compound 27, 5-fluoro-2-(((3-methyl-4-ethoxypyridin-2-yl)methyl)sulfonyl)-1H-benzo[d]-imidazole]
melting point: 177 to 178 °C

c1ccc2[nH]c(CSc3ncnc4ccccc34)nc2c1
melting point: 198 to 200 °C (dec.)

Cc1ccc2nc([S+]([O-])Cc3nccc(OCC(F)(F)F)c3C)[nH]c2c1 (stereo not shown) [compound 24, 5-methyl-2-(((3-methyl-4-(2,2,2-trifluoroethoxy)pyridin-2-yl)methyl)sulfinyl)-1H-benzo[d]-imidazole]
melting point: > 133 °C (dec.)
